Target: T1, Glucocorticoid Receptor (GR), CHO-GRE-Luc #35 cells (Cricetulus griseus, UniProt A0A9J7F8I2)
T1 sequence (A0A9J7F8I2 1-774): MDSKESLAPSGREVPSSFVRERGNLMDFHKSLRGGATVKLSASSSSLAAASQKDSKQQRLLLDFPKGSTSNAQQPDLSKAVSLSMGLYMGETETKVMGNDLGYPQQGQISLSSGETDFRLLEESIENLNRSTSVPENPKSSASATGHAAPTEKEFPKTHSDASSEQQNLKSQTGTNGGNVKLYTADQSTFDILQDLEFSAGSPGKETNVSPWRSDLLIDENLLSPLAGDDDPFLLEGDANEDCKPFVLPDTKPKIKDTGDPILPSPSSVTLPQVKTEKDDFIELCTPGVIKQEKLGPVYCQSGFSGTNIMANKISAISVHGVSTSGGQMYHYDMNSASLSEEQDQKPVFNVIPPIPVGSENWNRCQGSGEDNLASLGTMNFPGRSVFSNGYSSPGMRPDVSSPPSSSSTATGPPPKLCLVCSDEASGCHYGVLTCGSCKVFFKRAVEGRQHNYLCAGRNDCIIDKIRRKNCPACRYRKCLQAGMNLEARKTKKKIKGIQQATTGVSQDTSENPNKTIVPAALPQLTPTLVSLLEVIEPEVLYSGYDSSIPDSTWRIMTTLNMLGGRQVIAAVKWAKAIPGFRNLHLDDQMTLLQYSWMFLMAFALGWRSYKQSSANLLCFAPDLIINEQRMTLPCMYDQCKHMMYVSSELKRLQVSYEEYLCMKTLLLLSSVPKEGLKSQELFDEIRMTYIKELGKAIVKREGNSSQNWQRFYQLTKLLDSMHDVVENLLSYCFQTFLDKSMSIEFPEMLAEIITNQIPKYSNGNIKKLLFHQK
Experiment: Glucocorticoid receptor function test using transgenic-recombinant cell (GRE-luciferase)
Format: cell-based
Conditions: against GR stimulation with 10 nM dexamethasone, luciferase, about 6 hr; read-out: GR (IC50: nM)
Procedure: Glucocorticoid Receptor Function Test Using Transgenic-Recombinant Cell
Transgenic-recombinant cell was prepared by our company (Yokohama, JP). In Hokkaido System Science Co., Ltd., a cis-element wherein two glucocorticoid responsive elements (GRE) present in the […] promoter region of mouse were connected in tandem was produced on order from synthetic DNA. The gene was incorporated into a plasmid vector having a gene encoding luciferase enzyme. The plasmid was incorporated into CHO-K1 cell to give a transfectant. The expression cell (CHO-GRE-Luc #35) produces luciferase instead of the object protein under regulation of a transcription region involved in the expression of the object protein. That is, using the cell, a substance that controls production of the object protein can be screened for by replacing the substance with the luciferase activity. Fetal Bovine Serum (FBS), L-glutamine, penicillin-streptomycin solution, PBS(−), trypsin-EDTA solution, Opti-MEM medium and G418 were obtained from GIBCO (Auckland, N.Z.). A 10 cm dish and DMEM:HAM′S F12 medium were obtained from IWAKI (Chiba, JP). A 96 well white plate was obtained from Corning (Corning, N.Y.). Bright-Glo was obtained from Promega (Madison, US). Dexamethasone was obtained from Sigma Chemicals (St. Louis, Mo.).
CHO-GRE-Luc #35 cells were cultured for several days in a 10 cm dish in a medium (10% FBS/DMEM:HAM'S F12/2.5 mM L-glutamine/50 U/mL penicillin/25 μg/mL streptomycin/500 μg/mL G418). Sub-confluent cells were washed with a suitable amount of PBS(−), 1 ml of Trypsin-EDTA was added and the cells were stood still in a CO2 incubator at 37° C. for 3 min. A 10-fold amount of Opti-MEM medium was added to give a suspension, which was placed in a centrifugal tube and centrifuged (25° C., 1,000 rpm, 5 min). The supernatant was removed, and the cells were suspended in 5 ml of Opti-MEM medium and counted.
Storage solutions (5-20 mM) of the compound were prepared with DMSO. The storage solutions were diluted with DMSO to 1 mM, and further diluted 100-fold with distilled water or Opti-MEM medium to give solutions. The preparations were diluted with 1% DMSO solution to each concentration. As GR agonist, 10 nM dexamethasone was used. 0.2% DMSO was present at the time of the function assay.
The prepared compound solutions (evaluation compound solution or 1% DMSO solution 10 μL+dexamethasone or 1% DMSO solution 10 μL) were added to the plate. After the addition, the place was stood still in a CO2 incubator at 37° C. for about 6 hr. After the reaction, Bright-Glo was added at 20 μL/well, and the mixture was gently shaken and measured by a microplate luminometer (Turner Designs Instrument).
The IC50 value (nM) of the evaluation compound against GR stimulation with dexamethasone was calculated using Prism 3.0 as an analysis software and assuming one-site competition.

| IC50 | Compound |
| --- | --- |
| 35 nM | CC1(C)Nc2c(cc(-c3ccnc4ncccc34)c3occc23)C(C)(C)C1=O [Example 102, 2,2,4,4-tetramethyl-6-([1,8]naphthyridin-4-yl)-1,2,3,4-tetrahydro-furo[2,3-h]quinolin-3-one] |
| 128 nM | Cc1noc(C)c1-c1cc2c(c3c1C(=O)CC3)NC(C)(C)C(=O)C2(C)C [Example 104, 6-(3,5-dimethylisoxazol-4-yl)-2,2,4,4-tetramethyl-2,3,4,7,8,9-hexahydro-1H-cyclopenta[h]quinoline-3,7-dione] |

— patent US8367695B2, “Condensed tetrahydroquinoline derivative and use thereof for medical purposes” (Mitsubishi Tanabe Pharma Corporation, priority 2007, dated 2013)
